Source: patent US20220089531A1, “NEW […] ACID DERIVATIVES, PHARMACEUTICALLY ACCEPTABLE SALT THEREOF, COMPOSITION THEREOF AND METHOD OF USE THEREOF” (THE GOVERNING COUNCIL OF THE UNIVERSITY OF TORONTO, priority 2018, published 2022)
Several values for one entry are separate records, joined by “and”; a condition that tells them apart may be missing. Identical values can stand only once. Like-named read-outs stand apart in the source and are kept apart here.

Key:
[1] = tested on: K562; assay: Cell Titer-Blue cell viability assay, K562 (CML); type: cell-based; conditions: Homo sapiens; CML cell line K562, 72 hrs exposure
Description: (§1) Anti-cancer efficacy of exemplary compounds of this application was assessed in vitro in different cancer cell lines. Cell viability was examined following treatment at various concentration of inhibitor (0.097656-50 μM) using a cell Titer-Blue cell viability assay. 1×10^4 cells/well were plated in 96-well assay plates in culture medium. All cells were grown in DMEM, IMDM and RPMI-1640 supplemented with 10% FBS. After 24 hrs, test compounds and vehicle controls were added to appropriate wells so the final volume was 100 μl in each well. The cells were cultured for the desired test exposure period (72 hrs) at 37° C. and 5% CO2. The assay plates were removed from 37° C. incubator and 20 μl/well of CellTiter-Blue® Reagent was added. The plates were incubated using standard cell culture conditions for 1-4 hours and the plates were shaken for 10 seconds and fluorescence recorded at 560/590 nm.
(§2) Compound I and II were tested for their efficacy against selected chronic myelogenous leukemia, acute myeloid leukemia and healthy human lung cell lines using the protocol stated above.

[2] = tested on: MOLM-13; assay: Cell Titer-Blue cell viability assay, MOLM-13 (AML); type: cell-based; conditions: Homo sapiens; AML cell line MOLM-13, 72 hrs exposure
Description: as §1, §2

[3] = tested on: MV-4-11; assay: Cell Titer-Blue cell viability assay, MV-4-11 (AML); type: cell-based; conditions: Homo sapiens, MV4-11; AML cell line MV-4-11, 72 hrs exposure
Description: as §1, §2

[4] = tested on: Mouse Hepatocyte; assay: Intrinsic clearance in mouse hepatocyte; type: in vitro ADME; conditions: time points 0-120 minutes
Description: (§3) A stock of 100 μM test compound was prepared by diluting the 10 mM test compound in DMSO with a solution of 50% acetonitrile and 50% water. In a 96-well non-coated plate, 198 μL of hepatocytes was pipetted, and the plate was placed in the incubator on an orbital shaker to allow the hepatocytes to warm for 10 minutes. To this solution was added 2 μL of the 100 μM test compound to start the reaction, and the plate was placed on an orbital shaker. At time points of 0, 15, 30, 60, 90 and 120 minutes, the aliquots were mixed with a solution of acetonitrile and internal standard (100 nM alprazolam, 200 nM labetalol, and 2 μM ketoprofen) to terminate the reaction. The reaction solution was then vortexed for 10 minutes and centrifuged at 4,000 rpm for 30 minutes at 4° C. […] of the supernatant was transferred to one new 96-well plate, centrifuged at 4,000 rpm for 30 minutes at 4° C., and 100 μL of the supernatant was transferred to a new 96-well plate ensuring the pellet was not disturbed. 100 μL of ultrapure water was added to all samples for analysis by LC-MS/MS.
(§4) The in vitro half-life (T1/2) was determined by the linear regression of the natural logarithm of the remaining percentage of the parent drug vs. incubation time curve. The slope value (k) of the curve was then substituted into the following equation to determine the in vitro half-life
(§5) The in vitro intrinsic clearance (in vitro CLint, in μL/min/10^6 cells) was determined by the following equation.
(§6) Where volume of incubation=0.2 mL and number of hepatocytes per well=0.1×10^6 cells.
(§7) Bioanalytical method: Column—Phenomenex Synergi 4μ Hydro-PR 80A (2.0×30 mm).
(§8) Mobile phase—0.1% formic acid in water (solvent A) and 0.1% formic acid in acetonitrile (solvent B). Column temperature—room temperature. Injection volume—10 μL. MS analysis—API 4000 instrument from AB Inc (Canada) with an ESI interface.

[5] = Intrinsic clearance in mouse hepatocyte; type: in vitro ADME; conditions: mouse, mouse hepatocytes, time points 0-120 minutes, read-out: In vitro T1/2 in mouse hepatocytes
Description: as §3, §4, §5, §6, §7, §8

[6] = Bioavailability / PK study in CD-1 mice (IP injection); type: in vivo; conditions: 20 mg/kg IP, plasma
Description: The study groups for PK for compound I, II and comparative experiments with AC-3-19 and JPX-0371 experiments are shown in Table 2.
All animals had free access to food and water. Dose formulation processing during dosing: The formulations will be kept stirred at room temperature for at least 15 min before dosing and during the dosing. Pharmacokinetics (PK) Schedule shown below in Table 3.
Approximately 0.03 mL blood was collected at each time point. Blood of each sample was transferred into plastic micro centrifuge tubes containing heparin-Na as anticoagulant. Collection tubes with blood samples and anticoagulant were inverted several times for proper mixing of the tube contents and then placed on wet ice prior to centrifugation for plasma. The blood samples were centrifuged at 4000 g for 5 min at 4° C. to obtain plasma. The samples were stored in a freezer at −75±15° C. prior to analysis. The study used CD-1 mice (male), n=3, at age approx. 6-8 weeks (20-30 g).
Concentrations of compounds in the plasma samples were analyzed using a LC-MS/MS method. WinNonlin (Phoenix™, version 6.1). Other similar software could have also been used for pharmacokinetic calculations. Pharmacokinetic parameters were calculated, whenever possible from the plasma concentration versus time data: IP parameters including T1/2, Cmax, Tmax, AUClast, AUCinf, MRT are calculated.

[7] = tested on: MRC-9; assay: Cell Titer-Blue cell viability assay, MRC-9 (healthy cell line); type: cell-based; conditions: Homo sapiens, MRC9; healthy cell line MRC-9, 72 hrs exposure
Description: as §1, §2

[8] = tested on: HaCat; assay: Cell Titer-Blue cell viability assay, HaCat (healthy cell line); type: cell-based; conditions: Homo sapiens, 72 hrs exposure
Description: as §1

[9] = tested on: NIH 3T3; assay: Cell Titer-Blue cell viability assay, NIH 3T3; type: cell-based; conditions: Mus musculus, NIH3T3; NIH 3T3 cells, 72 hrs exposure
Description: as §1

[10] = tested on: phosphorylation of Shc, Src, Jak-1/2, Erk1/2 or Akt; conditions: cited from earlier work
[11] = tested on: xenograft models of lung or breast cancer; conditions: murine xenograft models of lung or breast cancer; cited from earlier work
[12] = tested on: non-transformed cells (NIH 3T3 cells, STAT3 null mouse embryo fibroblasts, or mouse thymus stromal cells); conditions: cited from earlier work
[13] = male, CD-1, mouse, ip, 20 mg/kg, individual animal
[14] = male, CD-1, mouse, ip, 20 mg/kg, mean N=3
[15] = male, CD-1, mouse, ip, 20 mg/kg, read-out: t1/2 (converted)

For `CC(C)(C)c1cc(CN(C(=O)CN(Cc2ccc(Cl)cc2)S(=O)(=O)c2c(F)c(F)c(F)c(F)c2F)c2ccc(C(=O)O)c(O)c2)cc(C2CC2)c1` [Compound I], the IC50 [1] was 4.1 µM, the IC50 [2] was 1.7 to 2.5 µM and the IC50 [3] was 0.56 µM. The “In vitro T1/2 in mouse hepatocytes” value [4] was 1.68 h, the half-life at 1 µM [5] was 1.67 h and the “AUC Extr” value ([6]; individual animal, 20 mg/kg) was 0.346% and 0.385% and 0.325%. The AUCInf ([6]; individual animal, 20 mg/kg) was 7245 ng·h/mL and 6566 ng·h/mL, the AUClast ([6]; individual animal, 20 mg/kg) was 7217 ng·h/mL and 6545 ng·h/mL and the Cmax ([6]; individual animal, 20 mg/kg) was 3290 ng/mL and 3480 ng/mL. The MRT ([6]; individual animal, 20 mg/kg) was 1.99 h and 1.81 h, the t1/2 ([6]; individual animal, 20 mg/kg) was 3.91 h and 3.97 h and the “AUC Extr” value ([6]; mean N=3) was 0.352%. It also gave an AUC(0-inf) [6, 13] of 5820 ng·h/mL, an AUC(0-t) [6, 13] of 5800 ng·h/mL and a Cmax ([6]; male, CD-1, mouse, ip, 20 mg/kg, individual animal, read-out: Cmax) of 3010 ng/mL. The MRT ([6]; male, CD-1, mouse, ip, 20 mg/kg, individual animal, read-out: MRT) was 1.87 h, the half-life ([6]; male, CD-1, mouse, ip, 20 mg/kg, individual animal, read-out: t1/2 (converted)) was 3.92 h and the AUC(0-inf) [6, 14] was 6540 ng·h/mL. For the same molecule, the AUC(0-t) [6, 14] was 6520 ng·h/mL, the Cmax ([6]; male, CD-1, mouse, ip, 20 mg/kg, mean N=3, read-out: Cmax) was 3260 ng/mL and the MRT ([6]; male, CD-1, mouse, ip, 20 mg/kg, mean N=3, read-out: MRT) was 1.89 h. The half-life ([6]; male, CD-1, mouse, ip, 20 mg/kg, mean N=3, read-out: t1/2 (converted)) was 3.93 h, the half-life ([6]; male, CD-1, mouse, ip, 20 mg/kg, read-out: calculated T1/2 (FIG. 6) (converted)) was 3.9 h and the Tmax ([6]; male, mouse, mean N=3) was 0.5 h. The IC50 [7] was 30 µM and the IC50 [8] was 20 µM.
In the case of `O=C(O)c1ccc(N(Cc2cccc(C3CCCC3)c2)C(=O)CN(Cc2c(F)c(F)c(F)c(F)c2F)S(=O)(=O)c2c(F)c(F)c(F)c(F)c2F)cc1O` [JPX-320], the IC50 [2] is reported as 0.8 µM, the IC50 [3] is reported as 1.1 µM and the half-life [6, 15] is reported as 0.861 h.
`O=C(O)c1ccc(N(Cc2cccc(C3CCCC3)c2)C(=O)CN(Cc2c(F)c(F)c(F)c(F)c2F)S(=O)(=O)c2c(F)c(F)c(F)c(F)c2F)cc1` [JPX-303, 4-(N-(3-cyclopentylbenzyl)-2-((2,3,4,5,6-pentafluoro-N-((perfluorophenyl)methyl)phenyl)sulfonamido)acetamido)benzoic acid] showed an IC50 [1] of 2.6 µM, an IC50 [9] of 5.19 µM and an IC50 [3] of 0.21 µM. For the same molecule, the half-life [6, 15] was 0.35 h.
For BP-1-102, the “effect on phosphorylation of Shc, Src, Jak-1/2, Erk1/2 or Akt” value [10] is listed as “little or no effect”, the “anti-tumor effect in vivo” value [11] is listed as “dramatic regression in tumor volumes” and the “effect on non-transformed cells” value [12] is listed as “no effect”.
`O=C(O)c1ccc(N(Cc2cccc(C3CCCC3)c2)C(=O)CN(Cc2ccc(Cl)cc2)S(=O)(=O)c2c(F)c(F)c(F)c(F)c2F)cc1O` [JPX-062, 4-(2-((N-(4-chlorobenzyl)-2,3,4,5,6-pentafluorophenyl)sulfonamido)-N-(3-cyclopentylbenzyl)acetamido)-2-hydroxybenzoic acid] showed an IC50 [2] of 6.4 µM, an IC50 [3] of 7.9 µM and a half-life [6, 15] of 0.94 h.
Molecule `CC(C)(C)c1cc(CN(C(=O)CN(Cc2ccc(Cl)cc2)S(=O)(=O)c2c(F)c(F)c(F)c(F)c2F)c2ccc(C(=O)O)cc2)cc(C2CC2)c1` [Compound II] has an IC50 [3] of 0.48 µM and a half-life at 1 µM [5] of 0.767 h.
Work on `O=C(O)c1ccc(N(Cc2cccc(C3CCCC3)c2)C(=O)CN(Cc2ccc(Cl)cc2)S(=O)(=O)c2c(F)c(F)c(F)c(F)c2F)cc1` [JPX-313, 4-(2-((N-(4-chlorobenzyl)-2,3,4,5,6-pentafluorophenyl)sulfonamido)-N-(3-cyclopentylbenzyl)acetamido)benzoic acid] yielded an IC50 [2] of 1.1 µM, an IC50 [3] of 0.93 µM and a half-life [6, 15] of 0.31 h.
